From ChEMBL document CHEMBL1131519, “1,2-Benzisothiazol-3-one 1,1-dioxide inhibitors of human mast cell tryptase” (J Med Chem, 1998) come the findings set out here.

The target of one test is Tryptase (Homo sapiens, UniProt Q9BZJ3+Q15661+Q9NRR2). In words: Inhibitory activity was measured against human mast cell tryptase. It counts as protein assay.
In a further test the target is Coagulation factor X (Homo sapiens, UniProt P00742). In words: Inhibitory activity was measured against Coagulation factor X.
Coagulation factor X, sequence (P00742 41-179 limits assumed): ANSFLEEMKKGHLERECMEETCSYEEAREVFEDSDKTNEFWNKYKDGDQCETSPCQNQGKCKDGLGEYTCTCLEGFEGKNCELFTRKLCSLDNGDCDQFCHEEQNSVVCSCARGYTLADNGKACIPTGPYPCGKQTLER
Coagulation factor X, sequence (P00742 235-488 limits assumed): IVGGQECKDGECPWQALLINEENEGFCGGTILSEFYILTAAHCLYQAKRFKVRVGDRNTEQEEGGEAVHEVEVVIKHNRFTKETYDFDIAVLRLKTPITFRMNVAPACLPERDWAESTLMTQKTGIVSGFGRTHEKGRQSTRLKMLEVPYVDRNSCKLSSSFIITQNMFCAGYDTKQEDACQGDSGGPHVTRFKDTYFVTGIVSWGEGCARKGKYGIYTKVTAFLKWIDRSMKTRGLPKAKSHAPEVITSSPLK
A further test addresses T1, Neutrophil elastase (Homo sapiens, UniProt P08246).
T1 sequence (P08246 whole entry): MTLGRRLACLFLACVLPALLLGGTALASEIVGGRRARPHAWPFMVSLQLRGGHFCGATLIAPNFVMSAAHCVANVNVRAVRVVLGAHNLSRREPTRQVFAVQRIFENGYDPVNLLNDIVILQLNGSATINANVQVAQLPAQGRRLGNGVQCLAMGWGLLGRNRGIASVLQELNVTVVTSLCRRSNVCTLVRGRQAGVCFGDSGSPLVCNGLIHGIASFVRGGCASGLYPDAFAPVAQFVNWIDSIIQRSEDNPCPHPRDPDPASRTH
In words: Inhibitory activity was measured against human leukocyte elastase.

The target in another test is Plasminogen (Homo sapiens, UniProt P00747). In words: Inhibitory activity was measured against plasmin.
Plasminogen, sequence (P00747 97-580 limits assumed): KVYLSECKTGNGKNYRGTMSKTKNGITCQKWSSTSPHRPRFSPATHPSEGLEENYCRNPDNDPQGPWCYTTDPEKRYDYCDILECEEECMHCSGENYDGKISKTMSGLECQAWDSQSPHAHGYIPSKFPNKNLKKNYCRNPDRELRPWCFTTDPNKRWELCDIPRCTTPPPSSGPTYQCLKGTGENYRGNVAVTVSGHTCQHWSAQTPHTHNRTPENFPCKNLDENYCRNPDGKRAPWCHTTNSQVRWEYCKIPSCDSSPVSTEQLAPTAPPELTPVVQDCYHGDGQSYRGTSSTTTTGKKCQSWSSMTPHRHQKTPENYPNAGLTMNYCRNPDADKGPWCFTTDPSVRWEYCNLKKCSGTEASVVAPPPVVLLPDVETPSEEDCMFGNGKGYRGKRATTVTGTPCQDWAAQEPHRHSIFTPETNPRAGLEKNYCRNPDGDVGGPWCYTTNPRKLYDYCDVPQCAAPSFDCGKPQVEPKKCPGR
Plasminogen, sequence (P00747 581-810 limits assumed): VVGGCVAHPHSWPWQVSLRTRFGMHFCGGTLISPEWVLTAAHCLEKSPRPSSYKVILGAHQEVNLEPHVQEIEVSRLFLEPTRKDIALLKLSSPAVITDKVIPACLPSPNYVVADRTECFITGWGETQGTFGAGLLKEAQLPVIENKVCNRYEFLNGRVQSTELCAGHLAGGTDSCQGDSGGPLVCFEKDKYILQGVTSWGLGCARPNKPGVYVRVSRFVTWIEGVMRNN
For test [1], the target named is Urokinase-type plasminogen activator (Homo sapiens, UniProt P00749). In words: Inhibitory activity was measured against urokinase.
Another test concerns the target Prothrombin (Homo sapiens, UniProt P00734). In words: Inhibitory activity was measured against thrombin.

pIC50: −log10 of the molar value.

As usually defined, the IC50 is the midpoint of a concentration-inhibition curve. A high value points to weaker potency in that assay. What is called pIC50 is −log10 of the IC50, conventionally taken in molar units. A higher pIC50 goes with a small IC50.

With `O=C(CNC(=O)OCc1ccccc1)OCN1C(=O)c2ccccc2S1(=O)=O`, on Tryptase, the IC50 amounted to 6940 nM.
Still for that read-out and setting: the result for `O=C(NCCc1ccccc1)c1ccc(C(=O)OCN2C(=O)c3ccccc3S2(=O)=O)cc1` reads 679 nM; that for `O=C(NCc1ccccc1)Nc1ccc(C(=O)OCN2C(=O)c3ccccc3S2(=O)=O)cc1`, 950 nM.
In turn, `O=C(NCc1ccc(C(=O)OCN2C(=O)c3ccccc3S2(=O)=O)cc1)Oc1ccccc1` displayed an IC50 at Tryptase of 630 nM.
With `O=C(CCNC(=O)OCc1ccccc1)OCN1C(=O)c2ccccc2S1(=O)=O`, the pIC50 was < 4.48 against Coagulation factor X; 5.65 on Neutrophil elastase; < 4.48 at Plasminogen; < 4.48 in test [1]; < 4.48 against Prothrombin. This compound yielded an IC50 against Tryptase of 854 nM.
`O=C(NCc1ccc(C(=O)OCN2C(=O)c3ccccc3S2(=O)=O)cc1)OCc1ccccc1`: the IC50 against Tryptase is 352 nM.
Turning to `O=C(NCc1ccc(C(=O)OCN2C(=O)c3ccccc3S2(=O)=O)cc1)Nc1ccccc1`, the IC50 against Tryptase is 157 nM.
Turning to `O=C(CCc1ccccc1)Nc1ccc(C(=O)OCN2C(=O)c3ccccc3S2(=O)=O)cc1`, the IC50 against Tryptase turned out to be 170 nM.
The same measure, in the same setting: the result for `O=C(Nc1cccc(C(=O)OCN2C(=O)c3ccccc3S2(=O)=O)c1)OCc1ccccc1` reads > 33000 nM.
As to `CC(C)(C)OC(=O)N[C@@H](CCCCNC(=O)OCc1ccccc1)C(=O)OCN1C(=O)c2ccccc2S1(=O)=O`, the IC50 at Tryptase amounted to 352 nM.
Still for that read-out and setting: the result for `O=C(CCNC(=O)OCc1ccccc1)NCCC(=O)OCN1C(=O)c2ccccc2S1(=O)=O` reads > 33000 nM; that for `CC(C)(C)OC(=O)N[C@H](CCCCNC(=O)OCc1ccccc1)C(=O)OCN1C(=O)c2ccccc2S1(=O)=O`, 12200 nM.
Take `O=C(Cc1ccccc1)NCc1ccc(C(=O)OCN2C(=O)c3ccccc3S2(=O)=O)cc1`: the IC50 on Tryptase stood at 132 nM.
`O=C(CCCCNC(=O)OCc1ccccc1)OCN1C(=O)c2ccccc2S1(=O)=O`: the pIC50 on Coagulation factor X is < 4.48; against Neutrophil elastase, 5.84; at Plasminogen it was 4.48; in test [1], < 4.48; against Prothrombin, < 4.48. For the same compound, the IC50 against Tryptase was 110 nM.
For `O=C(CCCNC(=O)OCc1ccccc1)OCN1C(=O)c2ccccc2S1(=O)=O`, on Tryptase, the IC50 worked out at 349 nM.
On the same count and under the same terms, the result for `O=C(CCCCCNC(=O)OCc1ccccc1)OCN1C(=O)c2ccccc2S1(=O)=O` reads 436 nM; that for `Nc1ccc(C(=O)OCN2C(=O)c3ccccc3S2(=O)=O)cc1`, > 33000 nM.
Still for that read-out and setting: the result for `CC(C)(C)OC(=O)NCCCCCC(=O)OCN1C(=O)c2ccccc2S1(=O)=O` reads 5370 nM.
The same measure, in the same setting: the result for `O=C(OCN1C(=O)c2ccccc2S1(=O)=O)c1ccc(OCCOc2ccccc2)cc1` reads > 33000 nM.
On to `O=C(Nc1ccc(C(=O)OCN2C(=O)c3ccccc3S2(=O)=O)cc1)OCc1ccccc1`, for which the values for the pIC50 on Neutrophil elastase and at Prothrombin were 5.58 and < 4.48, respectively. For the same compound, the IC50 at Tryptase is 64.3 nM.
